Consider four molecules from patent publication US5990328A, “Process for the preparation of 4-amino-Δ4-3-ketosteroids via 4-nitro-Δ4-3-ketosteroids” (priority 1999, dated 1999).

The structures appear in SMILES notation.

In general, inhibition refers to how much of the control response was suppressed. What is called IC50 is the concentration at which inhibition is half-maximal. Broadly, the Km is the concentration of substrate that gives half-maximal velocity.

Type in all cases: biochemical
For experiment [1], the target named is T1, monkey testicular C17-20 lyase (Macaca fascicularis, UniProt Q2XVA1).
T1 construct: microsomal preparations of the enzyme from rat or cynomolgus monkey testicular tissue; from tissue; host or cells: cynomolgus monkey testicular tissue, microsomes
T1 sequence (Q2XVA1 1-508): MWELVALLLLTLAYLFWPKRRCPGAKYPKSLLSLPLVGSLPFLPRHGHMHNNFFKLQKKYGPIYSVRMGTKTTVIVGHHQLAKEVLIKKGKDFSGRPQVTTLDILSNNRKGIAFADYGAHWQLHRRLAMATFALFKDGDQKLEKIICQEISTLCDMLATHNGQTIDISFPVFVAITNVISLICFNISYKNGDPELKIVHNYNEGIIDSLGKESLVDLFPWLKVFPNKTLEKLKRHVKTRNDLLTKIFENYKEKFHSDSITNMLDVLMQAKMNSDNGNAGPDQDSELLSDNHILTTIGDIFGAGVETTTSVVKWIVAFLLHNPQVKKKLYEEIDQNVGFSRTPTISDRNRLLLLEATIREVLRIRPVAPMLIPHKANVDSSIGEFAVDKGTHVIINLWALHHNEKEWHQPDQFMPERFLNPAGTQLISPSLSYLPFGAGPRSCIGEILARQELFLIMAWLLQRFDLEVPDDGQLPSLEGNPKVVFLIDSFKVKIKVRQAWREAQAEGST
Briefly: inhibition of cynomolgus monkey testicular C17-20 lyase (microsomes), with or without preincubation. The note with it: for inhibition at 0.1 µM / inhibition at 1 µM: cynomolgus monkey testicular lyase; for inhibition at 0.1 µM: concentration 0.1 μM; for inhibition at 1 µM: concentration 1 μM. As for the experimental part:
(§1) The in vitro enzymatic inhibitory activity of the present compounds as inhibitors of steroid C17-20 lyase was established using microsomal preparations of the enzyme from rat or cynomolgus monkey testicular tissue. Microsomes were isolated from cynomolgus monkey or rat testicular tissue. The compound to be tested was dissolved in dimethyl sulfoxide and diluted in 0.05M potassium phosphate buffer, (pH 7.4 for cynomolgus monkey lyase activity and pH 7.2 for rat lyase activity) to give the desired concentrations of test compound. The final assay concentration of DMSO was 0.1% (v/v). Assays contained an NADPH regenerating system comprised of […], 5 mM glucose-6-phosphate, 1 IU/mL glucose-6-phosphate dehydrogenase and microsomal protein in a total volume of 0.2 mL.
For determination of time dependent C17-20 lyase inactivation, the test compound was incubated with 20 to 62 μg/mL microsomal protein, 0.05 M potassium phosphate buffer, pH 7.4, and the NADPH regenerating system described above at 34° C. for 0 to 40 minutes. Aliquots of 180 μL were then removed and assayed for enzyme activity. Each aliquot was added to [7-^3 H]-17α-hydroxypregnenolone (11.2 mCi/mmole; 0.2 μCi per assay) plus unlabeled 17α-hydroxypregnenolone to give a total substrate concentration of 0.3 μM per assay and subsequently incubated for 6 minutes at 34° C. For determination of reversible inhibition by the test compound, the reaction was initiated by the addition of substrate and inhibitor (or DMSO in buffer for controls) simultaneously to the other assay components. The substrate used for cynomolgus monkey lyase was 7-^3 H-17α-hydroxypregnenolone, which yielded a final concentration of 0.3 μM substrate. […] The complete assay was incubated at 34° C. for 6 minutes for both rat and monkey lyase.
Each assay was terminated by addition of 5 mL of chloroform:methanol (2:1). Carrier steroid (2.5 μg each) representing substrates and products and 0.8 mL of distilled, deionized water were then added to each assay. Carrier steroids for the lyase assays were 17α-hydroxy-pregnenolone,dehydroepiandrosterone, and androst-5-ene-3β,17β-diol (cynomolgus monkey lyase assays) or 17α-hydroxyprogesterone, androstenedione, and testosterone (rat lyase assays). Testosterone, dihydrotestosterone, and 3,17-androstanediol were added to the 5α-reductase assays as carrier steroids. Radiolabeled and unlabeled steroid were extracted by the method of Moore and Wilson (Methods in Enzymol., eds. O'Malley, B. W. and Hardlan, J. G. 36, 1975, pp. 466-473). The organic phase containing the steroids was evaporated using nitrogen gas. For lyase assays, the residues dissolved in 18% tetrahydrofuran (v/v) in hexane. For 5α-reductase assays, the dried steroid residues were dissolved in 3% (v/v) isopropanol in hexane. the steroids were then separated by normal phase HPLC on a LiCrosorb® DIOL derivatized silica gel column (10 μm; 4×250 mm) with a 3% to 7.5% isopropanol in hexane gradient, followed by isocratic conditions of […] isopropanol in hexane. Radioactivity in the steroid peaks was measured using a Radiomatic® Model HS or Model A515 Flo-One detector for both lyase and 5α-reductase assays.
The enzyme activity for each assay was calculated from the percent conversion of substrate to products, and the results were expressed as percent inhibition of control. The data from these experiments were fitted into the appropriate two parameter model incorporating six concentrations of inhibitor to determine an IC50 value. […] When the compounds were tested using the above procedures with cynomolgus monkey testicular lyase, the following results were obtained: […]

The target in experiment [2] is T2, rat testicular C17-20 lyase (Rattus norvegicus, UniProt P11715).
T2 construct: microsomal preparations of the enzyme from rat or cynomolgus monkey testicular tissue; from tissue; host or cells: rat testicular tissue, microsomes
T2 sequence (P11715 1-507): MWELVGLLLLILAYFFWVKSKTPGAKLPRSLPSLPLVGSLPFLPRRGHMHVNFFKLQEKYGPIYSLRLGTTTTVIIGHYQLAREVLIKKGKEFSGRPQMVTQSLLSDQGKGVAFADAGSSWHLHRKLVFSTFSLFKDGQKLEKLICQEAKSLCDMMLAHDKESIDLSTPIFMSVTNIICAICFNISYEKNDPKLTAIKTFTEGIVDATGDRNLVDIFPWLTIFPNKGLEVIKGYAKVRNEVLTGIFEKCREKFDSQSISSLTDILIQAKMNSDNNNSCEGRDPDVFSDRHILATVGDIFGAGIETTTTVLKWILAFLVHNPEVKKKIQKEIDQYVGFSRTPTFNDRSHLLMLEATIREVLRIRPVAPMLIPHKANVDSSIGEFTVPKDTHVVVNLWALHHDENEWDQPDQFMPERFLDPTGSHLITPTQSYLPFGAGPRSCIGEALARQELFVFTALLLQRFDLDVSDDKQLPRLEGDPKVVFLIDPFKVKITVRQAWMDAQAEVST
Briefly: inhibition of rat testicular C17-20 lyase (microsomes). The procedure:
as §1, with “mL. […]” for “mL.”
(§2) Each assay was terminated by addition of 5 mL of chloroform:methanol (2:1). […] Radioactivity in the steroid peaks was measured using a Radiomatic® Model HS or Model A515 Flo-One detector for both lyase and 5α-reductase assays.
(§3) The enzyme activity for each assay was calculated from the percent conversion of substrate to products, and the results were expressed as percent inhibition of control. […]

Experiment [3] concerns the target T3, prostatic monkey 5α-reductase (Macaca fascicularis, UniProt Q28892).
T3 construct: microsomes were isolated from cynomolgus monkey prostate tissue; from tissue; host or cells: cynomolgus monkey prostate tissue, microsomes
T3 sequence (Q28892 1-254): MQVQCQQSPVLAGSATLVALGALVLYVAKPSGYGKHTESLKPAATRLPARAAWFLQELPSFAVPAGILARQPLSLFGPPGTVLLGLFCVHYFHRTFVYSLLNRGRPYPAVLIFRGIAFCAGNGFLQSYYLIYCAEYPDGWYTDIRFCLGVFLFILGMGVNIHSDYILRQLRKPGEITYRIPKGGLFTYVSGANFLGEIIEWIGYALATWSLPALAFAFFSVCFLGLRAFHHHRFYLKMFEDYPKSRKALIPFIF
Briefly: inhibition of cynomolgus monkey prostatic 5α-reductase (microsomes). The procedure: The activity of the present compounds as inhibitors of steroid 5α-reductase was determined using microsomal preparations of the 5α-reductase enzyme from laboratory animal prostate tissue. Specifically, microsomes were isolated from cynomolgus monkey prostate tissue. Protein concentration of the microsomal preparations was determined prior to use of the samples. […] Background radioactivity was determined from assays containing all components except enzyme. […]
as §2, §3

Where [4] appears, read: preincubation time 40 (minutes).

Regarding `C[C@]12CC[C@H]3[C@@H](CCC4=C([N+](=O)[O-])C(=O)CC[C@@]43C)[C@@H]1CC[C@@H]2OC1CC1` [17β-cyclopropyloxy-4-nitroandrost-4-en-3-one], in experiment [1] (preincubation time 0 (minutes)), the inhibition at 0.1 µM was found to be 36% and the inhibition at 1 µM amounted to 78%. In experiment [1] (setting [4]), the inhibition at 0.1 µM came to 79% and the inhibition at 1 µM came out at 95%.
Turning to `C[C@H](CO)[C@H]1CC[C@H]2[C@@H]3CCC4=C([N+](=O)[O-])C(=O)CC[C@]4(C)[C@H]3CC[C@]12C` [(20S)-20-Hydroxymethyl-4-nitropregn-4-en-3-one], the IC50 in experiment [1] (cynomolgus monkey testicular microsomes, substrate 0.3 μM 17α-hydroxypregnenolone, 34° C.) was 41 nM; in experiment [2] (rat testicular microsomes, substrate 0.1 μM 17α-hydroxyprogesterone, pH 7.2, 34° C.), 86 nM; in experiment [3], 17 nM.
As to `C[C@H](CS)[C@H]1CC[C@H]2[C@@H]3CCC4=C([N+](=O)[O-])C(=O)CC[C@]4(C)[C@H]3CC[C@]12C` [(20S)-20-mercaptomethyl-4-nitropregn-4-en-3-one], the inhibition at 0.1 µM was determined as 0% in experiment [1] (preincubation time 0 (minutes)) and 26% in experiment [1] (setting [4]). Also, the inhibition at 1 µM amounted to 69% in experiment [1] (preincubation time 0 (minutes)) and 93% in experiment [1] (setting [4]).
For `CC(=O)[C@@]1(O)CC[C@H]2[C@@H]3CCC4=CC(=O)CC[C@]4(C)[C@H]3CC[C@@]21C` [[1,2-^3 H]-17α-hydroxyprogesterone, reference compound], the Km in experiment [2] (substrate Km, rat lyase activity) came out at 0.095 µM.
